Assay results: patent US10851073B2, “Protein tyrosine phosphatase inhibitors and methods of use thereof” (Calico Life Sciences LLC, priority 2019, dated 2020)
pIC50: −log10 of the molar value.

Tested on: B16F10 mouse melanoma cells
Assay: B16F10 IFNγ-induced cellular growth inhibition assay
Assay type: cell-based
Conditions: B16-F10, with 0.5 ng/mL IFNγ, read-out: B16F10 GI IC50
Method: Example 229: B16F10 IFNγ-Induced Cellular Growth Inhibition Assay B16F10 mouse melanoma cells (ATCC Cat^# CRL-6475, Manassas, Va.) were seeded at a density of 500 cells per well in a 384-well clear bottom plate (Corning Cat^#3765, Corning, N.Y.) in 25 μL total volume of DMEM+10% FBS (Sigma Cat^# D6429 and Sigma Cat^# F4135, St. Louis, Mo.). Cells were allowed to adhere overnight at 37° C.+5% CO2. On the following day, 12.5 μL of mouse IFNγ (RD systems Cat^#485-MI/CF, Minneapolis, Minn.) was added to half of the plate (columns 13-24) at a concentration of 2 ng/mL for a final assay concentration of 0.5 ng/mL of IFNγ. Media only (12.5 μL of DMEM+10% FBS) was added to the remainder of the plate (columns 1-12). Next, compounds resuspended in DMSO (Sigma Cat^# D2650) at 100 mM were diluted in semi-log dilutions in DMSO ranging from 100 mM to 0.001 mM and DMSO only controls were included. The compound/DMSO dilutions were further diluted 1:250 in DMEM+10% FBS, and 12.5 μL of these dilutions were added in triplicates to cells of both treatment arms (with and without IFNγ). Final compound concentrations ranged from 100 μM to 0.001 μM with a final DMSO concentration of 0.1%. Compounds were only dosed in the inner 240 wells, avoiding the outer 2-well perimeter of the plate to minim/ze edge effects. Finally, the plate was loaded into an IncuCyte® S3 Live Cell Analysis System (Essen Bioscience-Sartorius, Ann Arbor, Mich.) maintained in a 37° C.+5% CO2 incubator, allowed to equilibrate for 2 hours, and imaged every 6 hours for 5 days. Confluence over time for compound dilutions in the presence and absence of IFNγ was measured. Growth inhibition values were obtained when the “DMSO/no IFNγ” control reached confluence >95%. At these time points, for each compound the percent growth inhibition at every compound dose level was calculated relative to the “DMSO/with IFNγ” control and used to determine the IC50.

Compared with `O=C1CN(c2c(O)cc3c(c2F)CCCC3)S(=O)(=O)N1` [Compound 108, 5-(1-fluoro-3-hydroxy-5,6,7,8-tetrahydronaphthalen-2-yl)-1λ^6,2,5-thiadiazolidine-1,1,3-trione], `O=C1CN(c2c(O)cc3c(c2F)CNCC3)S(=O)(=O)N1` [Compound 143, 5-(8-fluoro-6-hydroxy-1,2,3,4-tetrahydroisoquinolin-7-yl)-1λ^6,2,5-thiadiazolidine-1,1,3-trione] is higher in pIC50: 4.00 to 5.00 for the first, 5.00 to 6.00 for the second.

`O=C1CN(c2c(O)cc3c(c2F)CCCO3)S(=O)(=O)N1` [Compound 111, 5-(5-fluoro-7-hydroxy-3,4-dihydro-2H-1-benzopyran-6-yl)-1λ^6,2,5-thiadiazolidine-1,1,3-trione] and `CC1(C)CCc2c(cc(O)c(N3CC(=O)NS3(=O)=O)c2F)O1` [Compound 112, 5-(5-fluoro-7-hydroxy-2,2-dimethyl-3,4-dihydro-2H-1-benzopyran-6-yl)-1λ^6,2,5-thiadiazolidine-1,1,3-trione] fall in the same range of pIC50: 4.00 to 5.00 for the first, 4.00 to 5.00 for the second.

Compared with `CC(C)CCCN1CCc2cc(O)c(N3CC(=O)NS3(=O)=O)c(F)c2C1` [Compound 145, 5-[8-fluoro-6-hydroxy-2-(4-methylpentyl)-1,2,3,4-tetrahydroisoquinolin-7-yl]-1λ^6,2,5-thiadiazolidine-1,1,3-trione], `NCCCN1CCc2cc(O)c(N3CC(=O)NS3(=O)=O)c(F)c2C1` [Compound 218, 5-[2-(3-aminopropyl)-8-fluoro-6-hydroxy-1,2,3,4-tetrahydroisoquinolin-7-yl]-1λ^6,2,5-thiadiazolidine-1,1,3-trione] is lower in pIC50: 5.00 to 6.00 for the first, 4.00 to 5.00 for the second.

First: O=C1CN(c2c(O)cc3c(c2F)CN(CCCCC(F)(F)F)CC3)S(=O)(=O)N1 [Compound 153, 5-[8-fluoro-6-hydroxy-2-(5,5,5-trifluoropentyl)-1,2,3,4-tetrahydroisoquinolin-7-yl]-1λ^6,2,5-thiadiazolidine-1,1,3-trione]
Second: O=C1CN(c2c(O)cc3c(c2F)CN(CCCCCC(F)(F)F)CC3)S(=O)(=O)N1 [Compound 161, 5-[8-fluoro-6-hydroxy-2-(6,6,6-trifluorohexyl)-1,2,3,4-tetrahydroisoquinolin-7-yl]-1λ^6,2,5-thiadiazolidine-1,1,3-trione]
The pIC50 of the first is lower: < 4.00 for the first, 4.00 to 5.00 for the second.

`O=C1CN(c2c(O)cc3c(c2F)CC(NCc2ccccn2)CC3)S(=O)(=O)N1` (stereo not shown) [Compound 155, 5-(1-fluoro-3-hydroxy-7-{[(pyridin-2-yl)methyl]amino}-5,6,7,8-tetrahydronaphthalen-2-yl)-1λ^6,2,5-thiadiazolidine-1,1,3-trione] and `O=C1CN(c2c(O)cc3c(c2F)CN(Cc2ccccn2)CC3)S(=O)(=O)N1` [Compound 184, 5-{8-fluoro-6-hydroxy-2-[(pyridin-2-yl)methyl]-1,2,3,4-tetrahydroisoquinolin-7-yl}-1λ^6,2,5-thiadiazolidine-1,1,3-trione] fall in the same range of pIC50: 4.00 to 5.00 for the first, 4.00 to 5.00 for the second.

`O=C1CN(c2c(O)cc3c(c2F)CN(CCC2CCCCC2)CC3)S(=O)(=O)N1` [Compound 179, 5-[2-(2-cyclohexylethyl)-8-fluoro-6-hydroxy-1,2,3,4-tetrahydroisoquinolin-7-yl]-1λ^6,2,5-thiadiazolidine-1,1,3-trione] and `O=C1CN(c2c(O)cc3c(c2F)CN(CCC2CCOCC2)CC3)S(=O)(=O)N1` [Compound 214, 5-{8-fluoro-6-hydroxy-2-[2-(oxan-4-yl)ethyl]-1,2,3,4-tetrahydroisoquinolin-7-yl}-1λ^6,2,5-thiadiazolidine-1,1,3-trione] fall in the same range of pIC50: 5.00 to 6.00 for the first, 5.00 to 6.00 for the second.

Compared with `Cc1n[nH]c(C)c1CCN1CCc2cc(O)c(N3CC(=O)NS3(=O)=O)c(F)c2C1` [Compound 194, 5-{2-[2-(3,5-dimethyl-1H-pyrazol-4-yl)ethyl]-8-fluoro-6-hydroxy-1,2,3,4-tetrahydroisoquinolin-7-yl}-1λ^6,2,5-thiadiazolidine-1,1,3-trione], `Cc1noc(C)c1CCN1CCc2cc(O)c(N3CC(=O)NS3(=O)=O)c(F)c2C1` [Compound 211, 5-{2-[2-(3,5-dimethyl-1,2-oxazol-4-yl)ethyl]-8-fluoro-6-hydroxy-1,2,3,4-tetrahydroisoquinolin-7-yl}-1λ^6,2,5-thiadiazolidine-1,1,3-trione] is higher in pIC50: 5.00 to 6.00 for the first, > 6.00 for the second. The second is the more potent here.

`O=C1CN(c2c(O)cc3c(c2F)CN(CCCC2CCOCC2)CC3)S(=O)(=O)N1` [Compound 196, 5-{8-fluoro-6-hydroxy-2-[3-(oxan-4-yl)propyl]-1,2,3,4-tetrahydroisoquinolin-7-yl}-1λ^6,2,5-thiadiazolidine-1,1,3-trione] and `O=C1CN(c2c(O)cc3c(c2F)CN(CCCN2CCOCC2)CC3)S(=O)(=O)N1` [Compound 229, 5-{8-fluoro-6-hydroxy-2-[3-(morpholin-4-yl)propyl]-1,2,3,4-tetrahydroisoquinolin-7-yl}-1λ^6,2,5-thiadiazolidine-1,1,3-trione] fall in the same range of pIC50: 5.00 to 6.00 for the first, 5.00 to 6.00 for the second.

Compared with `O=C1CN(c2c(O)cc3c(c2F)C[C@H](NCCC2CC(F)(F)C2)CC3)S(=O)(=O)N1` [Compound 202, 5-[(7R)-7-{[2-(3,3-difluorocyclobutyl)ethyl]amino}-1-fluoro-3-hydroxy-5,6,7,8-tetrahydronaphthalen-2-yl]-1λ^6,2,5-thiadiazolidine-1,1,3-trione], `O=C1CN(c2c(O)cc3c(c2F)CN(CC[C@H]2C[C@@H](OC(F)(F)F)C2)CC3)S(=O)(=O)N1` [Compound 231, 5-(8-fluoro-6-hydroxy-2-{2-[(1s,3r)-3-(trifluoromethoxy)cyclobutyl]ethyl}-1,2,3,4-tetrahydroisoquinolin-7-yl)-1λ^6,2,5-thiadiazolidine-1,1,3-trione] is lower in pIC50: > 6.00 for the first, 5.00 to 6.00 for the second.

`CC(C)CCNC(=O)N1CCc2cc(O)c(N3CC(=O)NS3(=O)=O)c(F)c2C1` [Compound 205, 8-fluoro-6-hydroxy-N-(3-methylbutyl)-7-(1,1,4-trioxo-1λ^6,2,5-thiadiazolidin-2-yl)-3,4-dihydroisoquinoline-2(1H)-carboxamide] and `CC(C)CNC(=O)N1CCc2cc(O)c(N3CC(=O)NS3(=O)=O)c(F)c2C1` [Compound 206, 8-fluoro-6-hydroxy-N-(2-methylpropyl)-7-(1,1,4-trioxo-1λ^6,2,5-thiadiazolidin-2-yl)-3,4-dihydroisoquinoline-2(1H)-carboxamide] fall in the same range of pIC50: 5.00 to 6.00 for the first, 5.00 to 6.00 for the second.

Compared with `Cc1noc(C)c1CN1CCc2cc(O)c(N3CC(=O)NS3(=O)=O)c(F)c2C1` [Compound 208, 5-{2-[(3,5-dimethyl-1,2-oxazol-4-yl)methyl]-8-fluoro-6-hydroxy-1,2,3,4-tetrahydroisoquinolin-7-yl}-1λ^6,2,5-thiadiazolidine-1,1,3-trione], `Cc1nn(C)c(C)c1CCN1CCc2cc(O)c(N3CC(=O)NS3(=O)=O)c(F)c2C1` [Compound 209, 5-{8-fluoro-6-hydroxy-2-[2-(1,3,5-trimethyl-1H-pyrazol-4-yl)ethyl]-1,2,3,4-tetrahydroisoquinolin-7-yl}-1λ^6,2,5-thiadiazolidine-1,1,3-trione] is higher in pIC50: 4.00 to 5.00 for the first, 5.00 to 6.00 for the second. The second is the more potent here.

`COCCCN1CCc2cc(O)c(N3CC(=O)NS3(=O)=O)c(F)c2C1` [Compound 217, 5-[8-fluoro-6-hydroxy-2-(3-methoxypropyl)-1,2,3,4-tetrahydroisoquinolin-7-yl]-1λ^6,2,5-thiadiazolidine-1,1,3-trione] and `C[C@H](N)CN1CCc2cc(O)c(N3CC(=O)NS3(=O)=O)c(F)c2C1` [Compound 245, 5-{2-[(2S)-2-aminopropyl]-8-fluoro-6-hydroxy-1,2,3,4-tetrahydroisoquinolin-7-yl}-1λ^6,2,5-thiadiazolidine-1,1,3-trione] fall in the same range of pIC50: 5.00 to 6.00 for the first, 5.00 to 6.00 for the second.

`CC(C)(C)OC(=O)N1CCc2cc(O)c(N3CC(=O)NS3(=O)=O)c(F)c2C1` [Compound 221, tert-butyl 8-fluoro-6-hydroxy-7-(1,1,4-trioxo-1λ^6,2,5-thiadiazolidin-2-yl)-3,4-dihydroisoquinoline-2(1H)-carboxylate] and `O=C1CN(c2c(O)cc3c(c2F)CN(CCC2(C(F)(F)F)CC2)CC3)S(=O)(=O)N1` [Compound 243, 5-(8-fluoro-6-hydroxy-2-{2-[1-(trifluoromethyl)cyclopropyl]ethyl}-1,2,3,4-tetrahydroisoquinolin-7-yl)-1λ^6,2,5-thiadiazolidine-1,1,3-trione] fall in the same range of pIC50: 5.00 to 6.00 for the first, 5.00 to 6.00 for the second.

Compared with `Cc1nn(C(F)F)c(C)c1CCN1CCc2cc(O)c(N3CC(=O)NS3(=O)=O)c(F)c2C1` [Compound 238, 5-(2-{2-[1-(difluoromethyl)-3,5-dimethyl-1H-pyrazol-4-yl]ethyl}-8-fluoro-6-hydroxy-1,2,3,4-tetrahydroisoquinolin-7-yl)-1λ^6,2,5-thiadiazolidine-1,1,3-trione], `O=C1CN(c2c(O)cc3c(c2F)CN(CCN2CCNCC2)CC3)S(=O)(=O)N1` [Compound 247, 5-{8-fluoro-6-hydroxy-2-[2-(piperazin-1-yl)ethyl]-1,2,3,4-tetrahydroisoquinolin-7-yl}-1λ^6,2,5-thiadiazolidine-1,1,3-trione] is lower in pIC50: 5.00 to 6.00 for the first, 4.00 to 5.00 for the second. The first is the more potent here.
